Test results published in patent US8916605B2, “Compounds and methods for treating cancer and viral infections” (priority 2009, dated 2014).

Experiments:
[1] = system: Influenza B (strain B/Lee/40); assay: Anti-influenza cytopathic effect (CPE) assay in MDCK cells, prophylactic regimen (Example 7); type: cell-based; design: key to CPE score: 1: Complete monolayer with few gaps or dead cells; 2: Some gaps in the monolayer; dead cells more evident; 3: Increasing number of gaps in the monolayer concurrent with dead cells; 4: Gaps widely distributed throughout the monolayer and of increasing size; 5: Large holes forming as smaller gaps merge; copious dead cells evident; 6: Monolayer integrity lost. Small islands of attached cells amid predominantly dead cells; conditions: for CPE score: Influenza B, MDCK, virus + DMSO control 4
[2] = system: U373 astroglioma cells; assay: MTT (CIMA) cell proliferation assay, acute and chronic exposure (Example 3); conditions: acute (24 h) and chronic (72 h) treatment, 0.5-250 μg/ml
Procedure: (§1) Compound preparation: Stock solutions of test compounds were prepared in dimethylsulfoxide (DMSO) at 250 mg/ml. Working concentrations of 10 mg/ml were subsequently prepared from the stock solution and stored in 50 μl aliquots at −20° C. until used.
(§2) Cells and cell culture: Proof-of-principle studies in this example focused on two human brain cancer cell lines, namely SH-SY5Y neuroblastoma cells and U373 astroglioma cells. […] Both cells were maintained in (50:50) F12:DMEM medium supplemented with 10% fetal calf serum (FCS) and antibiotics in a humidified, 5% CO2 environment. Cells were passaged as required by trypsinization.
(§3) Assays conditions: The effects of the test compounds were assessed following acute and chronic exposure conditions. […] The test compounds were evaluated over a broad range of concentrations (0, 0.5, 1, 5, 10, 50, 100 and 250 μg/ml) with cells treated with equivalent concentrations of vehicle (DMSO) serving as controls.
(§4) Cell proliferation assay: Cell proliferation was assessed using a standard colorimetric indicator of metabolic activity (CIMA) assay. In this assay, the reduction of yellow tetrazolium salt (MTT) to purple formazan by mitochondrial reductase enzymes in viable cells was evaluated as a measure of metabolic activity to determine the extent of cell proliferation within a culture. The resulting colour change that conferred a change in absorbance was quantified using a spectrophotometer (λ=500-600). Samples were diluted as required to ensure that values obtained with the MTT assay fell within the linear range of the protocol. Qualitative microscopic evaluation of treated cultures was used to determine if overt cytotoxicity was present and to supplement the quantitative CIMA data.

[3] = system: MDCK cells; assay: Cytotoxicity assay (MTT/CIMA) in MDCK cells (Example 7)
[4] = system: all three transformed neuronal cell lines (IMR32, NG108, NSC34); assay: MTT (CIMA) cell proliferation assay (Example 4); conditions: 72 h post-treatment; 0.5-250 μg/ml
Procedure: as §1
Cells and cell culture: Three classes of cells were evaluated: 1) neuroblastoma cells, 2) neuroglioma cells, and 3) non-transformed human neurons (see below). All cells were maintained in appropriate culture medium supplemented with 10% fetal calf serum (FCS) and antibiotics in a humidified, 5% CO2 environment. Cells were passaged as required by trypsinization.
Assay conditions: The effects of the test compounds were assessed following acute and chronic exposure conditions. […] Each compound was evaluated over a broad range of concentrations (0, 0.5, 1, 5, 10, 50, 100 and 250 μg/ml) with cells treated with equivalent concentrations of vehicle (DMSO) serving as controls.
Cell proliferation assay: Cell proliferation was assessed using a standard colorimetric indicator of metabolic activity (CIMA) assay. In this assay, the reduction of yellow tetrazolium salt (MTT) to purple formazan by mitochondrial reductase enzymes in viable cells was evaluated as a measure of metabolic activity to determine the extent of cell proliferation within a culture. […]

[5] = system: Influenza A (strain A/PR/8/34); assay: Anti-influenza cytopathic effect (CPE) assay in MDCK cells, prophylactic regimen (Example 7); type: cell-based; design: key to CPE score: 1: Complete monolayer with few gaps or dead cells; 2: Some gaps in the monolayer; dead cells more evident; 3: Increasing number of gaps in the monolayer concurrent with dead cells; 4: Gaps widely distributed throughout the monolayer and of increasing size; 5: Large holes forming as smaller gaps merge; copious dead cells evident; 6: Monolayer integrity lost. Small islands of attached cells amid predominantly dead cells; conditions: for CPE score: Influenza A, MDCK
[6] = system: SH-SY5Y neuroblastoma cells; assay: MTT (CIMA) cell proliferation assay, acute and chronic exposure (Example 3)
Procedure: as §1, §2, §3, §4

CC(C)(C)OC(=O)N1CCCC1O (centres unmarked) [I(b), tert-butyl 2-hydroxypyrrolidine-1-carboxylate]
effect on CPE (summary in words) ([1]; Influenza B infection): little impact on CPE
CPE score ([1]; 24 hpi, 0.5 μg/ml): 3
CPE score ([1]; 24 hpi, 1.0 μg/ml): 4
CPE score ([1]; 24 hpi, 5.0 μg/ml): 4
CPE score ([1]; 24 hpi, 10 μg/ml): 3
CPE score ([1]; 24 hpi, 25 μg/ml): 4
CPE score ([1]; 24 hpi, 50 μg/ml): 3
CPE score ([1]; 24 hpi, 100 μg/ml): 4
CPE score ([1]; 48 hpi, 0.5 μg/ml): 3
CPE score ([1]; 48 hpi, 1.0 μg/ml): 4
CPE score ([1]; 48 hpi, 5.0 μg/ml): 4
CPE score ([1]; 48 hpi, 10 μg/ml): 4
CPE score ([1]; 48 hpi, 25 μg/ml): 4
CPE score ([1]; 48 hpi, 50 μg/ml): 3
CPE score ([1]; 48 hpi, 100 μg/ml): 3
overt cell death / reductions in MTT activity [2]: Neither overt cell death nor significant reductions in MTT activity
Toxicity (MTT), fold changes relative to vehicle controls ([3]; 24 h exposure, 0.5 μg/ml): 1.02 fold
Toxicity (MTT), fold changes relative to vehicle controls ([3]; 24 h exposure, 1.0 μg/ml): 1.07 fold
Toxicity (MTT), fold changes relative to vehicle controls ([3]; 24 h exposure, 5.0 μg/ml): 1.09 fold
Toxicity (MTT), fold changes relative to vehicle controls ([3]; 24 h exposure, 10 μg/ml): 1.00 fold
Toxicity (MTT), fold changes relative to vehicle controls ([3]; 24 h exposure, 25 μg/ml): 1.08 fold
Toxicity (MTT), fold changes relative to vehicle controls ([3]; 24 h exposure, 50 μg/ml): 1.13 fold
Toxicity (MTT), fold changes relative to vehicle controls ([3]; 24 h exposure, 100 μg/ml): 1.09 fold
Toxicity (MTT), fold changes relative to vehicle controls ([3]; 72 h exposure, 0.5 μg/ml): 0.99 fold
Toxicity (MTT), fold changes relative to vehicle controls ([3]; 72 h exposure, 1.0 μg/ml): 1.00 fold
Toxicity (MTT), fold changes relative to vehicle controls ([3]; 72 h exposure, 5.0 μg/ml): 0.94 fold
Toxicity (MTT), fold changes relative to vehicle controls ([3]; 72 h exposure, 10 μg/ml): 0.97 fold
Toxicity (MTT), fold changes relative to vehicle controls ([3]; 72 h exposure, 25 μg/ml): 1.04 fold
Toxicity (MTT), fold changes relative to vehicle controls ([3]; 72 h exposure, 50 μg/ml, decreases exceeding 25% considered toxic): 0.99 fold
Toxicity (MTT), fold changes relative to vehicle controls ([3]; 72 h exposure, 100 μg/ml, decreases exceeding 25% considered toxic): 0.89 fold
cytotoxicity (summary in words) ([3]; higher concentrations (≧25 μg/ml)): did not evidence cytotoxicity
viability/proliferation [4]: dose-dependent decreases in viability/proliferation
CPE score ([5]; 0.5 μg/ml, virus + DMSO control 3): 1
CPE score ([5]; 0.5 μg/ml, virus + DMSO control 4): 2
CPE score ([5]; 1.0 μg/ml, virus + DMSO control 3): 1
CPE score ([5]; 1.0 μg/ml, virus + DMSO control 4): 2
CPE score ([5]; 5.0 μg/ml, virus + DMSO control 3): 1
CPE score ([5]; 5.0 μg/ml, virus + DMSO control 4): 3
CPE score ([5]; 10 μg/ml, virus + DMSO control 3): 3
CPE score ([5]; 10 μg/ml, virus + DMSO control 4): 4
CPE score ([5]; 25 μg/ml, virus + DMSO control 3): 3
CPE score ([5]; 25 μg/ml, virus + DMSO control 4): 4
CPE score ([5]; 50 μg/ml, virus + DMSO control 3): 3
CPE score ([5]; 50 μg/ml, virus + DMSO control 4): 4
CPE score ([5]; 100 μg/ml, virus + DMSO control 3): 3
CPE score ([5]; 100 μg/ml, virus + DMSO control 4): 4
effect on CPE (summary in words) ([5]; comparatively lower concentrations): lower concentrations more greatly reduced CPE
decrease in MTT activity ([6]; SH-SY5Y, acute treatment (24 h), 0.25 mg/ml): approximately 30%
change in MTT activity ([6]; SH-SY5Y, acute treatment (24 h), other concentrations evaluated (below 0.25 mg/ml)): No significant change in MTT activity
decrease in MTT activity ([6]; SH-SY5Y, chronic treatment (72 h), 50 μg/ml): 25%
decrease in MTT activity ([6]; SH-SY5Y, chronic treatment (72 h), 100 μg/ml): 25%
decrease in MTT activity ([6]; SH-SY5Y, chronic treatment (72 h), 250 μg/ml): 47%
LD50 ([6]; select cell types, chronic conditions (72 h)): ~0.25 mg/mL
